# In US6603023B2 (priority 1996, dated 2003):
# Values joined by “and” are separate entries in the source; they are usually repeats but may differ in a detail not shown here. Equal values may be shown once. Where a name gives a salt, the structure may show the parent alone. Read-outs that look alike come from different tables or passages of the source.
# What was measured:
# CCRF-CEM/VBL100 = assay: cells; format: cell-based, human
# Summary of the method: (§1)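 Duplicate 72 h cultures at 5×10^4 cells/mL, 37 °C, 5% CO2; then XTT plus PMS for 4 h; dual-wavelength read at 450/630 nm. Resistant sublines held under their selecting agents.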
# CCRF-CEM/VM1 = assay: cells; format: cell-based, human
# Summary of the method: as §1
# CCRF-CEM/Taxol® = assay: cells; format: cell-based, human; conditions: Homo sapiens, CCRF-CEM, 72 h
# Summary of the method: as §1
# [1] = test system: A549 Human Lung Carcinoma; assay: A549 xenograft; format: in vivo, nude mice; conditions: Q2D x 3: dEpoB 30 mg/kg 18 hr i.v. infusion, Taxol 15 mg/kg 6 hr infusion, VBL 2 and VP-16 25 mg/kg i.v. inj
# Human CCRF-CEM Xenograft = assay: CCRF-CEM xenograft in scid mice; format: in vivo, CB-17 scid mice
# [2] = test system: CCRF-CEM human T-cell acute lymphoblastic leukemia cell line; assay: XTT cytotoxicity (cell growth inhibition), CCRF-CEM
# Summary of the method: as §1
# [3] = Homo sapiens, CCRF-CEM, 72 h, Table 1A, XTT
# [4] = Homo sapiens, CCRF-CEM, read-out: IC50 (mean ± of determinations, in parentheses), Table 5
# [5] = Homo sapiens, CCRF-CEM, Table 5, single determinations
# [6] = dose 0.2 i.p. QD d7-10,14,15, day 12
# [7] = dose 0.2 i.p. QD d7-10,14,15, day 17
# [8] = dose 0.2 i.p. QD d7-10,14,15, day 22
# [9] = dose 0.4 i.p. QD d7-10,14,15, day 12
# [10] = dose 0.4 i.p. QD d7-10,14,15, day 17
# [11] = dose 0.4 i.p. QD d7-10,14,15, day 22
smiles,measurement,setting,value
"CC[C@]1(O)C[C@@H]2CN(CCc3c([nH]c4ccccc34)[C@@](C(=O)OC)(c3cc4c(cc3OC)N(C)[C@H]3[C@@](O)(C(=O)OC)[C@H](OC(C)=O)[C@]5(CC)C=CCN6CC[C@]43[C@@H]65)C2)C1 [Vinblastine, Vinblastine sulfate]",IC50,"CCRF-CEM/VBL100; Homo sapiens, CCRF-CEM",332 nM
same,IC50,CCRF-CEM/VBL100; [3],332 nM
same,IC50,"CCRF-CEM/VBL100; Homo sapiens, CCRF-CEM, Table 2, CCRF-CEM/VLB",465 nM
same,IC50,"CCRF-CEM/VBL100; Homo sapiens, CCRF-CEM, Table 5, CCRF-CEM/VLB, single determinations",440 nM
same,IC50,CCRF-CEM/VBL100; [4],332 nM
same,IC50,"CCRF-CEM/VBL100; Table 5, CCRF-CEM/VLB, single determinations",221 nM and 336 nM
same,IC50,CCRF-CEM/VM1; [3],0.41 nM
same,IC50,"CCRF-CEM/VM1; Homo sapiens, CCRF-CEM, Table 2, CCR-CEM/VM-1",0.68 nM
same,IC50,CCRF-CEM/VM1; [5],0.49 nM
same,IC50,CCRF-CEM/VM1; [4],0.41 nM
same,IC50,"CCRF-CEM/VM1; Table 5, single determinations",0.39 nM and 0.36 nM
same,IC50,CCRF-CEM/Taxol®,6.9 nM
same,"Average Body Weight (change), Day 13",[1],+2.3 g
same,"Average Body Weight (change), Day 15",[1],+3.2 g
same,Tumor Disappearance,[1],2/3
same,"Average Tumor Size, Day 11",[1]; control 96,11 mm^3
same,"Average Tumor Size, Day 13",[1]; control 128,11 mm^3
same,"Average Tumor Size, Day 15",[1]; control 306,11 mm^3
same,"Average Tumor Size, Day 17",[1]; control 553,7 mm^3
same,"Average Body Weight, Day 7",[1]; initial weight,25.5 g
same,Average weight change,"Human CCRF-CEM Xenograft; dose 0.2 i.p. QD d7-10,14,15, day 7",+0.2
same,Average tumor volume (control = 1.00),Human CCRF-CEM Xenograft; [6],0.45
same,Average weight change,Human CCRF-CEM Xenograft; [6],−0.8
same,Average tumor volume (control = 1.00),Human CCRF-CEM Xenograft; [7],0.25
same,Average weight change,Human CCRF-CEM Xenograft; [7],−1.5
same,Average tumor volume (control = 1.00),Human CCRF-CEM Xenograft; [8],0.29
same,Average weight change,Human CCRF-CEM Xenograft; [8],−0.3
same,Average weight change,"Human CCRF-CEM Xenograft; dose 0.4 i.p. QD d7-10,14,15, day 7",−0.1
same,Average tumor volume (control = 1.00),Human CCRF-CEM Xenograft; [9],0.31
same,Average weight change,Human CCRF-CEM Xenograft; [9],−1.4
same,Average tumor volume (control = 1.00),Human CCRF-CEM Xenograft; [10],0.27
same,Average weight change,Human CCRF-CEM Xenograft; [10],−1.8
same,Average tumor volume (control = 1.00),Human CCRF-CEM Xenograft; [11],0.30
same,Average weight change,Human CCRF-CEM Xenograft; [11],−0.7
same,IC50,"[2]; Homo sapiens, CCRF-CEM",0.63 nM
same,IC50,[2]; [3],6.3 nM
same,IC50,"[2]; Homo sapiens, CCRF-CEM, Table 2",0.68 nM
same,IC50,[2]; [5],0.8 nM
same,IC50,[2]; [4],0.63 nM
same,IC50,"[2]; Table 5, single determinations",0.6 nM and 0.5 nM
